The values below are quoted from earlier work in US8741563B2, “Metronidazole resistance in trichomonas vaginalis and single nucleotide polymorphisms” (priority 2011, dated 2014).

SMILES strings stand for the structures.

This data set deals with Trichomonas vaginalis. The note with it: reported effectiveness of metronidazole treatment.

Consider `Cc1ncc([N+](=O)[O-])n1CCO` [Metronidazole], for which the treatment effective is on record as 85-95%.
